In paper PMC11575542 (Chemical Science, 2024):

What was measured:
[1] = target: FabB (ketosynthase) (Escherichia coli, UniProt P0A953); type: binding
[2] = target: FabF (ketosynthase) (Escherichia coli, UniProt P0AAI5); type: binding
FabF (ketosynthase), sequence (P0AAI5 2-413): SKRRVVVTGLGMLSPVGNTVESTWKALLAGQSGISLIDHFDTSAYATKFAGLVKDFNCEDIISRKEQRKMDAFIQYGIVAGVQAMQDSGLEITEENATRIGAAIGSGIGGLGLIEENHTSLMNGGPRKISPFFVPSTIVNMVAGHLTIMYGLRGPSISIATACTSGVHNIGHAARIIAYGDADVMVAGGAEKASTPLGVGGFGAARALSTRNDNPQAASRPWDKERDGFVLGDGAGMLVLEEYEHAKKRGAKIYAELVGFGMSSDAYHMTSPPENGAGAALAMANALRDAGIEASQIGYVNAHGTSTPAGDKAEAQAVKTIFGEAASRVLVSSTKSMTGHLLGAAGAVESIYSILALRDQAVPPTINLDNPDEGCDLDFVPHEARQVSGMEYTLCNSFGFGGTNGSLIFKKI
FabF (ketosynthase), sequence (P0A6A8 2-78 partner): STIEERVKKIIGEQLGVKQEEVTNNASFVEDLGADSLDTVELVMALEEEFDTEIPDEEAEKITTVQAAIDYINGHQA

FabB (ketosynthase), sequence (P0A953 whole entry): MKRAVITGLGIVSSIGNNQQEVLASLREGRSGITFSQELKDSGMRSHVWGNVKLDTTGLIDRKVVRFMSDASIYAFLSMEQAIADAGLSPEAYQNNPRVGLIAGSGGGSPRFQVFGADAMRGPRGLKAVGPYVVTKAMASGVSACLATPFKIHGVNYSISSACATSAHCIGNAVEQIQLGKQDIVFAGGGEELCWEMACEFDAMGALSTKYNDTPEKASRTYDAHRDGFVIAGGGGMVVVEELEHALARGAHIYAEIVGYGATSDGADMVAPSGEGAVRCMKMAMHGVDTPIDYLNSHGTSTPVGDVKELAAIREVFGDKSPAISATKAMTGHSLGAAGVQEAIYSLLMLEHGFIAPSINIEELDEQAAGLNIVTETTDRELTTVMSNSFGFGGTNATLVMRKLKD
FabB (ketosynthase), sequence (P0A6A8 2-78 partner): as the sequence (P0A6A8 2-78 partner) above

Molecule `C/C=C/C/C=C/CCC(=O)[C@H]1O[C@H]1C(N)=O` [cerulenin] has an IC50 [1] of about 22.5 µM and an IC50 [2] of about 21.1 µM.
